Results published in ChEMBL document CHEMBL3217750, “Small-molecule inhibitors of dimeric transcription factors: Antagonism of proteinprotein and proteinDNA interactions” (Medchemcomm, 2012).
Each block holds one compound with its values, some of them ahead of it. Bridge positions count the residues as written; N and C are the ends. Peptide text beside a SMILES is read from it.

What was measured:
Transcription factor AP1 = Transcription factor AP1 (Homo sapiens, UniProt P01100+P05412); experiment: Inhibition of c-FOS/AP1 (unknown origin); type: protein-complex assay
Sequence of Transcription factor AP1 (P05412 whole entry): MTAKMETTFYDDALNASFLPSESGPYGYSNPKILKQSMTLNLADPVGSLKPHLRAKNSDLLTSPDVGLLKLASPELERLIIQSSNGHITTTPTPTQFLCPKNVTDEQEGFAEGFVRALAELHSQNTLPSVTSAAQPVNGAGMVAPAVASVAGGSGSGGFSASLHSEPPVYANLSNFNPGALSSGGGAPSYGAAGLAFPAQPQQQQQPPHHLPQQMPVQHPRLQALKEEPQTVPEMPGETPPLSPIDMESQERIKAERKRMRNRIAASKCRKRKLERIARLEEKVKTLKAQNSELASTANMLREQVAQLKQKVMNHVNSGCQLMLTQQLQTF
Sequence of Transcription factor AP1 (P01100 whole entry): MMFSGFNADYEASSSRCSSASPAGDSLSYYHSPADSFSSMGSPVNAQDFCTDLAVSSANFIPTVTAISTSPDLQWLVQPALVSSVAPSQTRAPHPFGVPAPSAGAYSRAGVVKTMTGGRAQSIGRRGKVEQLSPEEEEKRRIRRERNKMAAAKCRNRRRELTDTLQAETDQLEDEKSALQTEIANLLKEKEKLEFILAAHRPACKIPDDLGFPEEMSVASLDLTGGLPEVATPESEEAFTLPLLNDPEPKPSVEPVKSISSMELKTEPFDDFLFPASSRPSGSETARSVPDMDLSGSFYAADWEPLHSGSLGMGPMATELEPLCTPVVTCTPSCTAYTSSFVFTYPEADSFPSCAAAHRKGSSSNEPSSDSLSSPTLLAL

[1] = molecular target: T1, Myc proto-oncogene protein (Homo sapiens, UniProt P01106); experiment: Binding affinity to c-MYC (353 to 437) (unknown origin) by fluorescence polarization assay
T1 sequence (P01106 whole entry): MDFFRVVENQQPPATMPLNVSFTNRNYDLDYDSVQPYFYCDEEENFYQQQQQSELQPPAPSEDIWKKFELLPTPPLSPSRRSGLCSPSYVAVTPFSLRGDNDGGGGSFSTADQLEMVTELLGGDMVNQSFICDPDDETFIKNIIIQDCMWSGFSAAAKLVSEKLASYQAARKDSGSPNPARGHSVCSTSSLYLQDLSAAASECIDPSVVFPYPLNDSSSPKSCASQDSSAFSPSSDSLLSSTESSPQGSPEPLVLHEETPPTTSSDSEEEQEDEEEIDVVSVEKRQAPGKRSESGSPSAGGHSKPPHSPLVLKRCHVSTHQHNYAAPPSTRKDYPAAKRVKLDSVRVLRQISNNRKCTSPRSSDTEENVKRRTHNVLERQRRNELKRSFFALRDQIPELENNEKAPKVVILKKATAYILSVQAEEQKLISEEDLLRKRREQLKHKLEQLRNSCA

HL-60 = experiment: Antiproliferative activity against human HL60 cells; type: functional, cell-based
[2] = molecular target: T2, Lymphoid enhancer-binding factor 1 (Homo sapiens, UniProt Q9UJU2); experiment: Inhibition of LEF-1-mediated gene transcription in HEK293 cells after 48 hrs by luciferase reporter gene assay; type: cell-based
T2 sequence (Q9UJU2 whole entry): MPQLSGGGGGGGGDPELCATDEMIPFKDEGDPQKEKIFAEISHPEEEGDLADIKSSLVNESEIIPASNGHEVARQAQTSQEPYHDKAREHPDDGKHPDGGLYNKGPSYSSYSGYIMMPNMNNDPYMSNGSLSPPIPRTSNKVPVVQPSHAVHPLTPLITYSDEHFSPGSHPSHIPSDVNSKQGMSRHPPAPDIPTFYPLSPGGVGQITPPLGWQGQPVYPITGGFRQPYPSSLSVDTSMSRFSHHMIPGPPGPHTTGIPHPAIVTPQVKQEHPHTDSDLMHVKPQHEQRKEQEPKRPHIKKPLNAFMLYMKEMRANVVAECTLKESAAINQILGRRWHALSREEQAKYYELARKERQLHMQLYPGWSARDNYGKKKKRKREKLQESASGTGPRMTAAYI

[3] = molecular target: T2, Lymphoid enhancer-binding factor 1; experiment: Inhibition of LEF-1 (unknown origin) expressed in CEF assessed as inhibition of beta catenin interaction by electrophoretic mobility shift assay
c-Myc/Max [4] = molecular target: T3, c-Myc/Max (Homo sapiens, UniProt P01106+P61244); experiment: Inhibition of c-Myc/Max (unknown origin) DNA-binding activity preincubated for 1 hr followed by DNA addition measured after 15 mins by electrophoretic mobility shift assay; type: protein-complex assay
T3 sequence (P01106 whole entry): as the sequence (P01106 whole entry) above
T3 sequence (P61244 whole entry): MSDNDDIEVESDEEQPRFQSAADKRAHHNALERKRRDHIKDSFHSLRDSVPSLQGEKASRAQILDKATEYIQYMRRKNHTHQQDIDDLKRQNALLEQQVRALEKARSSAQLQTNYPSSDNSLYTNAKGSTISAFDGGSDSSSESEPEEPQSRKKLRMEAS

[5] = molecular target: T1, Myc proto-oncogene protein; experiment: Inhibition of c-MYC in human HL60 cells by chemiluminescence assay; type: cell-based, HL-60
Homo sapiens [6] = species on record: Homo sapiens; experiment: Selectivity ratio of IC50 for c-Myc/Max (unknown origin) to IC50 for AP-1 complex (unknown origin)
Transcription factor Jun = Transcription factor Jun (Homo sapiens, UniProt P05412); experiment: Inhibition of AP-1 complex (unknown origin)
Sequence of Transcription factor Jun (P05412 whole entry): as the sequence (P05412 whole entry) above

c-Myc/Max [7] = molecular target: T3, c-Myc/Max; experiment: Inhibition of c-Myc/Max (unknown origin); type: protein-complex assay
Protein max = Protein max (Homo sapiens, UniProt P61244); experiment: Inhibition of dimerized Max (unknown origin) DNA-binding activity
Sequence of Protein max (P61244 whole entry): as the sequence (P61244 whole entry) above

c-Myc/Max [8] = molecular target: T3, c-Myc/Max; experiment: Inhibition of c-Myc/Max (unknown origin) DNA-binding activity; type: protein-complex assay
Homo sapiens [9] = species on record: Homo sapiens; experiment: Selectivity ratio of IC50 for dimerized Max (unknown origin) to IC50 for c-Myc/Max (unknown origin)
Homo sapiens [10] = species on record: Homo sapiens; experiment: Ratio of curcumin IC50 to compound IC50 for AP-1 complex (unknown origin)

IC50 [2]: 6.2 µM
IC50 [3]: 31 µM
Compound: COC(=O)c1cc2cc(NC(=O)c3cc4cc(NC(=O)c5cc(NC(=O)OC(C)(C)C)cs5)ccc4[nH]3)ccc2[nH]1

IC50 (c-Myc/Max [4]): 50 µM
Compound: CNC(=O)c1cc2c(cc1C(=O)NC[C@H](NS(=O)(=O)c1c(Cl)sc(Cl)c1Br)C(=O)OC(C)(C)C)CN(C(=O)CCC1CCN(C(=O)OC(C)(C)C)CC1)C2

IC50 [2]: 0.15 µM
IC50 [3]: 115 µM
Compound: COC(=O)c1cnc2ccc(NC(=O)c3ccc4c(c3)c3cc(NC(=O)c5cc6cc(NC(=O)CCCN(C)C)ccc6o5)ccc3n4C)cc2c1

IC50 (Protein max): 72 µM
IC50 (c-Myc/Max [8]): 30 µM
Compound: COc1ccc(CNC(=O)c2cc3nc(-c4cccs4)cc(C(F)(F)F)n3n2)cc1

IC50 (Protein max): 88 µM
Ratio IC50 (Homo sapiens [9]): > 2
IC50 (c-Myc/Max [8]): 40 µM
Compound: CCOC(=O)c1cnn(-c2ccccc2)c1NC(=O)c1cc2nc(-c3ccco3)cc(C(F)(F)Cl)n2n1

IC50 (Transcription factor AP1): 200 µM
Compound: O=C(O)CCc1cc(C(=O)c2ccc(OC3CCCC3)cc2O)ccc1OCc1ccc2c(O)noc2c1

The remaining lines, values behind:

Compound: CC(=O)N[C@H]1CSSC[C@@H](C(N)=O)NC(=O)CNC(=O)[C@H](CC(=O)O)NC(=O)[C@H](C)NC(=O)[C@H](CC(C)C)NC(=O)[C@H](CC(=O)O)NC(=O)[C@H](CC(C)C)NC(=O)[C@H](CCC(N)=O)NC(=O)CNC1=O (Ac-CGQLDLADGC-NH2; disulfide 1-10)
IC50 (Transcription factor AP1): 8 µM

Compound: CCc1ccc(/C=C2\SC(=S)NC2=O)cc1
Activity [1]: 5.3 µM
IC50 (HL-60): 49 µM

Compound: CC(C)c1ccc(/C=C2\SC(=S)N(CN3CCCCC3)C2=O)cc1
IC50 [5]: 29 µM

Compound: CC1(C)CC[C@]2(C(=O)O)CC[C@]3(C)C(=CC[C@@H]4[C@@]5(C)CC[C@H](O[C@@H]6O[C@H](C(=O)O)[C@@H](O)[C@H](O[C@@H]7OC[C@H](O)[C@H](O)[C@H]7O)[C@H]6O)C(C)(C)[C@@H]5CC[C@]43C)[C@@H]2C1
Ratio IC50 (Homo sapiens [6]): > 100
IC50 (Transcription factor Jun): 30 µM
IC50 (c-Myc/Max [7]): 4 mM

Compound: COc1cc(/C=C/C(=O)/C=C(O)/C=C/c2cc(OC)c(O)c([N+](=O)[O-])c2)cc([N+](=O)[O-])c1O
Ratio IC50 (Homo sapiens [10]): 90
IC50 (Transcription factor Jun): 5.4 µM

Compound: O=[N+]([O-])c1ccc(Nc2ccccc2-c2ccccc2)c2nonc12
Activity [1]: 2.8 µM
